Reference: patent US20100152200A1, “[…] USES THEREOF” (priority 2008, published 2010)
Like-named read-outs stand apart in the source and are kept apart here.

Experiments:
WEEV replicon pWR-LUC = experiment: organism not typed; format: cell-based
BSR-T7/5 cells = experiment: Toxicity studies (MTT or Alamar Blue cell viability) in the pWR-LUC:BSR-T7/5 system; details: for toxicity:activity (T:A) ratio (CC50/IC1050): pWR-LUC:BSR-T7/5 system
WEEV = format: cell-based, WEEV strain Cba87
VEEV replicon = format: cell-based
FMV [1] = system: FMV
FMV [2] = format: cell-based, Fort Morgan virus (FMV) strain CM4-146
EEEV replicon = format: cell-based
SINV = details: 12.5 µM
FMV [3] = format: cell-based, Fort Morgan virus (FMV) strain CM4-146; remark: listed apart in the source

Row | Structure (SMILES) | suppression of fLUC expression (WEEV replicon pWR-LUC) | IC50 (WEEV replicon pWR-LUC; BSR-T7/5) | toxicity:activity (T:A) ratio (CC50/IC1050) (BSR-T7/5 cells) | IC50 (WEEV replicon pWR-LUC; read-out: IC50) | reduction of accumulation of viral RNAs encoding nsP2 or E1 (WEEV) | activity against VEEV replicon (in words) (VEEV replicon) | concentration effectively suppressing FMV-induced CPE (lowest concentration tested) (FMV [1]) | cell viability of FMV-infected cells (FMV [1]; 12.5 µM) | reduction of accumulation of viral RNAs encoding nsP2 or E1 (FMV [2]) | cytotoxicity (in words) (BSR-T7/5 cells; FIG. 2 dose-response, BSR-T7/5 cells transfected with pWR-LUC) | activity against EEEV replicon (in words) (EEEV replicon) | cell viability of SINV-infected cells (SINV) | suppression of infectious FMV production (FMV [3])
1 | COc1c(C)c2c(c(O)c1C/C=C(\C)CCC(=O)O)C(=O)OC2 [mycophenolic acid] | approximately 80% | – | – | – | – | – | – | – | – | – | – | – | –
2 | NC(=O)c1ncn([C@@H]2O[C@H](CO)[C@@H](O)[C@H]2O)n1 [ribavirin] | approximately 80% | 16 µM | 19 | – | – | – | – | – | – | – | – | – | –
3 | O=C(NCc1ccco1)C1CCN(C(=O)c2cc3sccc3n2Cc2ccc(F)cc2)CC1 [Compound 32091] | – | – | greater than 20 | 9.3 µM | 80-90% | broad activity | ≤ 3 µM | 70% | 80-90% | minimal cytotoxicity | broad activity | 50% | > 90%
